Literature values in patent US10842739B2, “Biodegradable alpha-2 agonist polymeric implants and therapeutic uses thereof” (Allergan, Inc., priority 2008, dated 2020).
Like-named read-outs stand apart in the source and are kept apart here.

water solubility (in words): negligible | water solubility (in words) (listed as Brimonidine free base): poorly water soluble | water solubility (in words) (listed as brimonidine free base): not water soluble
SMILES: Brc1c(NC2=NCCN2)ccc2nccnc12 [brimonidine freebase, 5-bromo-6-(2-imidazolidinylideneamino)quinoxaline]
